Experiments:
[1] = tested on: BSOLT-4; test: NCI cancer screening program, SRB: BSOLT-4; type: cell-based; conditions: Leukemia, PG +50, 48 hours
[2] = tested on: UACC-257; test: NCI cancer screening program, SRB: UACC-257; type: cell-based; conditions: Melanoma, PG +50, 48 hours
[3] = tested on: NCI-H460; test: NCI cancer screening program, SRB: NCI-H460; type: cell-based; conditions: Non-Small Cell Lung Cancer, PG +50, 48 hours
[4] = tested on: MALME-3M; test: NCI cancer screening program, SRB: MALME-3M; type: cell-based; conditions: Melanoma, PG +50, 48 hours
[5] = tested on: DU-145; test: NCI cancer screening program, SRB: DU-145; type: cell-based; conditions: Prostate Cancer, PG +50, 48 hours
[6] = tested on: SNB-19; test: NCI cancer screening program, SRB: SNB-19; type: cell-based; conditions: CNS Cancer, PG +50, 48 hours
[7] = tested on: HCT-15; test: NCI cancer screening program, SRB: HCT-15; type: cell-based; conditions: Colon Cancer, PG +50, 48 hours
[8] = tested on: NCI-H522; test: NCI cancer screening program, SRB: NCI-H522; type: cell-based; conditions: Non-Small Cell Lung Cancer, PG +50, 48 hours
[9] = tested on: COLO205; test: NCI cancer screening program, SRB: COLO205; type: cell-based; conditions: Colon Cancer
[10] = tested on: HS578T; test: NCI cancer screening program, SRB: HS578T; type: cell-based; conditions: Breast Cancer, PG +50, 48 hours
[11] = tested on: UO-31; test: NCI cancer screening program, SRB: UO-31; type: cell-based; conditions: Renal Cancer, PG +50, 48 hours
[12] = tested on: BKVX; conditions: Non-Small Cell Lung Cancer, PG +50, 48 hours
Excerpt: (§1) GI50, TGI and LC50 are values representing the concentrations at which the PG (percent of growth inhibition), defined below, is +50, 0, and −50, respectively.
(§2) If (Mean ODtest−Mean ODtzero)≧0. then PG=100×(Mean ODtest−Mean ODtzero)/(Mean ODctrl−Mean ODtzero)
(§3) If (Mean ODtest−Mean ODtzero)<0. then PG=100×(Mean ODtest−Mean ODtzero)/(Mean ODtzero)
(§4) Mean ODtzero=The average of optical density measurements of SRB-derived color just before exposure of cells to the test compound.
(§5) Mean ODtestThe average of optical density measurements of SRB-derived color after 48 hours exposure of cells to the test compound.
(§6) Mean ODctrl=The average of optical density measurements of SRB-derived color after 48 hours with no exposure of cells to the test compound.
(§7) If these response parameters could not be obtained by interpolation, the value given for each response parameter is the highest concentration tested and is preceded by a “>” sign.

[13] = tested on: BDF1 mice; test: Toxicity to BDF1 mice, ip twice daily for five days; type: in vivo; conditions: 75 mg/kg/dose ip twice daily for five days
[14] = tested on: UACC-62; test: NCI cancer screening program, SRB: UACC-62; type: cell-based; conditions: Melanoma, PG +50, 48 hours
[15] = tested on: K2112; conditions: Colon Cancer
Excerpt: as §1, §2, §3, §4, §5, §6, §7

[16] = tested on: OVCAR-3; test: NCI cancer screening program, SRB: OVCAR-3; type: cell-based; conditions: Ovarian Cancer
[17] = tested on: Leukemia P388 cells; test: In vivo treatment of leukemia P388 cells implanted ip in BDF1 mice; conditions: 25x2x5 mg/kg ip
Procedure: 10^6 Leukemia P388 cells were implanted ip to BDF1 mice obtained from Southern Research Institute, Alabama. (−)-OddC was administered ip twice daily for five days starting one day after tumor cell implantation.
FIG. 3 and Table 1 show the results of these studies.

[18] = tested on: PC-3; test: NCI cancer screening program, SRB: PC-3; type: cell-based; conditions: Prostate Cancer, PG +50, 48 hours
[19] = tested on: MCF7; test: NCI cancer screening program, SRB: MCF7; type: cell-based; conditions: Breast Cancer, PG +50, 48 hours
[20] = tested on: NCr nude mice; type: in vivo
Procedure: Drugs were given at the indicated doses on days 0 through 4 and tumor sizes were measured every several days. The tumor growth curves were generated as described in Bell, et al., Cancer(phila.) 36:2437-2440 (1975), and are illustrated in FIGS. 5(a) and 5(b).
Toxicity was evaluated by changes in body weight.

[21] = tested on: SR; test: NCI cancer screening program, SRB: SR; type: cell-based; conditions: Leukemia, PG +50, 48 hours
[22] = tested on: OVCAR-5; test: NCI cancer screening program, SRB: OVCAR-5; type: cell-based; conditions: Ovarian Cancer, PG +50, 48 hours
[23] = tested on: SP-295; conditions: CNS Cancer, PG +50, 48 hours
Excerpt: as §1, §2, §3, §4, §5, §6, §7

[24] = tested on: K-562; test: NCI cancer screening program, SRB: K-562; type: cell-based; conditions: Leukemia, PG +50, 48 hours
[25] = tested on: OVCAR-4; test: NCI cancer screening program, SRB: OVCAR-4; type: cell-based; conditions: Ovarian Cancer, PG +50, 48 hours
[26] = tested on: MDA-MB-435; test: NCI cancer screening program, SRB: MDA-MB-435; type: cell-based; conditions: Breast Cancer
[27] = tested on: MDA-MB-231/ATCC; conditions: Breast Cancer, PG +50, 48 hours
Excerpt: as §1, §2, §3, §4, §5, §6, §7

[28] = tested on: tumor cell lines tested; test: In vitro cytotoxicity, statement on all tumor cell lines tested; type: cell-based; conditions: all of the tumor cell lines tested
[29] = tested on: MCF7/ADR-RES; test: NCI cancer screening program, SRB: MCF7/ADR-RES; type: cell-based; conditions: Breast Cancer
[30] = tested on: SK-MEL-28; test: NCI cancer screening program, SRB: SK-MEL-28; type: cell-based; conditions: Melanoma, PG +50, 48 hours
[31] = Phosphorylation to nucleotides in vivo
[32] = tested on: MDA-N; test: NCI cancer screening program, SRB: MDA-N; type: cell-based; conditions: Breast Cancer, PG +50, 48 hours

SMILES: Nc1ccn([C@@H]2CO[C@H](CO)O2)c(=O)n1 [(−)-OddC, (−)-(2S,4S)-1-(2-hydroxymethyl-1,3-dioxolan-4-yl)cytosine]
- Log10GI50 [1]: −6.66
- LOG10GI50 [2]: >−4.00
- Log10GI50 [3]: −4.32
- Log10GI50 [4]: −4.51
- LOG10GI50 [5]: −6.97
- Log10GI50 [6]: −5.71
- Log10GI50 [7]: −5.39
- Log10GI50 [8]: −6.06
- Log10TGI ([9]; PG 0, 48 hours): >−4.00
- Log10GI50 ([9]; PG +50, 48 hours): −4.03
- LOG10GI50 [10]: >−4.00
- LOG10GI50 [11]: −5.60
- Log10GI50 [12]: >−4.00
- Toxicity to the mice [13]: toxic
- LOG10GI50 [14]: −5.53
- Log10TGI ([15]; PG 0, 48 hours): >−4.00
- Log10GI50 ([15]; PG +50, 48 hours): >−4.00
- LOG10TGI ([16]; PG 0, 48 hours): >−4.00
- LOG10GI50 ([16]; PG +50, 48 hours): −4.44
- Cures/Total (survivors equal or greater than 45 day life span) [17]: one long term survivor
- Mean Survival Time ([17]; twice a day on days 1 to 5, 10^6 P388 cells ip on day 0): 27 days
- LOG10GI50 [18]: −6.29
- LOG10GI50 [19]: −5.95
- Toxicity as indicated by weight loss of the animals ([20]; doses given, 25 mg/kg twice a day days 0 through 4): equally toxic
- Maximum tolerated dosage ([20]; twice a day for five continuous days of treatment, preliminary toxicity experiments): 25 mg/kg
- Log10GI50 [21]: −5.95
- LOG10GI50 [22]: −4.41
- Log10GI50 [23]: −6.24
- Log10GI50 [24]: −4.59
- LOG10GI50 [25]: >−4.00
- LOG10TGI ([26]; PG 0, 48 hours): >−4.00
- LOG10GI50 ([26]; PG +50, 48 hours): −4.62
- LOG10GI50 [27]: >−4.00
- Cytotoxicity in words [28]: more cytotoxic than AraC
- LOG10TGI ([29]; PG 0, 48 hours): >−4.00
- LOG10GI50 ([29]; PG +50, 48 hours): −4.97
- Log10GI50 [30]: −4.31
- Phosphorylation in vivo [31]: can be phosphorylated to mono-, di- and tri-phosphate nucleotide
- LOG10GI50 [32]: −4.33
